Test results published in paper PMC7689250, “Synthetic Peptide Libraries Designed From a Minimal Alpha-Helical Domain of AS-48-Bacteriocin Homologs Exhibit Potent Antibacterial Activity” (Frontiers in Microbiology, 2020).
Read-outs that look alike come from different tables or passages of the source. Residues, ends and D or L forms follow the SMILES beside them.

Legend:
[1] = test system: S. pyogenes (M1); format: cell-based, Streptococcus pyogenes; settings: for MBC: M1; for MIC: M1, 16 h
In short: (§1)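 MIC in Mueller-Hinton broth with 1 × 10^6 CFU/mL bacteria, overnight cultures grown first in LB (E. coli, P. aeruginosa, S. aureus) or Todd-Hewitt (S. pyogenes); growth read as OD 600. Library members screened at half the parent peptide MIC; MBC as lowest concentration giving no colonies after plating MIC wells, 37°C overnight.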

[2] = test system: S. aureus (USA300); format: cell-based, Staphylococcus aureus; settings: for MBC: USA300; for MIC: USA300, 16 h
In short: as §1

[3] = test system: sheep erythrocytes; format: cell-based; settings: red cells of sheep, 1 h
Procedure: To determine if peptide variants were hemolytic, fresh defibrinated whole sheep blood (Hardy Diagnostics) was washed three times in cold PBS, and washed blood was diluted 1:25 in PBS. Treatments were applied at a 1:10 ratio of sample:blood, where the sample was either 10% Triton, PBS, or a specific peptide concentration corresponding to concentrations used in the MIC assays. Treatments were incubated with the blood for 1 h at 37°C. Following incubation, samples were centrifuged at […] for 10 min at 4°C, and the absorbance of the supernatants at 450 nm was measured on the Synergy H1 Microplate Reader to measure the release of hemoglobin. Percent hemolysis was quantified by normalizing to the negative and positive controls.

[4] = test system: P. aeruginosa (PAO1); format: cell-based, Pseudomonas aeruginosa; settings: for MBC: PAO1; for MIC: PAO1, 16 h
In short: as §1

[5] = test system: E. coli (BL21); format: cell-based, Escherichia coli
In short: as §1

| MIC [1] | MIC [2] | MIC [4] | MIC ([5]; E. coli BL21) | MIC ([5]; BL21, 16 h) | Structure (SMILES) | MBC [1] | MBC [2] | Percent Hemolysis [3] | MBC [4] | MBC ([5]; E. coli BL21) | MBC ([5]; BL21) |
| --- | --- | --- | --- | --- | --- | --- | --- | --- | --- | --- | --- |
| 2 µM | >128 µM | >128 µM | – | 4 µM | CC[C@H](C)[C@H](NC(=O)[C@H](Cc1ccccc1)NC(=O)[C@H](C)NC(=O)[C@H](CCCCN)NC(=O)[C@H](CCCCN)NC(=O)CNC(=O)[C@H](CCCNC(=N)N)NC(=O)[C@H](CCCCN)NC(=O)[C@H](CCCNC(=N)N)NC(=O)[C@H](CC(C)C)NC(=O)[C@H](CCC(=O)O)NC(=O)[C@H](CCC(=O)O)NC(=O)[C@H](CC(C)C)NC(=O)[C@H](CC(C)C)NC(=O)[C@H](Cc1ccc(O)cc1)NC(=O)[C@H](CCCCN)NC(=O)[C@@H](NC(=O)[C@H](CC(C)C)NC(=O)[C@H](C)NC(=O)[C@H](CCC(N)=O)NC(=O)[C@H](CCCNC(=N)N)NC(=O)CNC(=O)[C@H](C)N)[C@@H](C)O)C(=O)N[C@@H](Cc1c[nH]c2ccccc12)C(=O)N[C@@H](Cc1c[nH]c2ccccc12)C(=O)O [Syn-xiamencin-60] (H-AGRQALTKYLLEELRKRGKKAFIWW-OH; N-terminus and C-terminus assumed) | 4 µM | >128 µM | 10.9% | >128 µM | – | 8 µM |
| 4 µM | >128 µM | 128 µM | – | 16 µM | CC[C@H](C)[C@H](NC(=O)[C@H](Cc1ccccc1)NC(=O)[C@H](C)NC(=O)[C@H](CCCCN)NC(=O)[C@H](CCCCN)NC(=O)CNC(=O)[C@H](CCCNC(=N)N)NC(=O)[C@H](CCCCN)NC(=O)[C@H](CCCNC(=N)N)NC(=O)[C@H](CC(C)C)NC(=O)[C@H](Cc1ccc(O)cc1)NC(=O)[C@H](CCC(=O)O)NC(=O)[C@H](CCCCN)NC(=O)[C@H](CC(C)C)NC(=O)[C@H](CCC(=O)O)NC(=O)[C@H](CC(C)C)NC(=O)[C@@H](NC(=O)[C@H](CC(C)C)NC(=O)[C@H](CCCCN)NC(=O)[C@H](CCC(N)=O)NC(=O)[C@H](CCCNC(=N)N)NC(=O)CNC(=O)[C@H](C)N)[C@@H](C)O)C(=O)N[C@@H](C)C(=O)N[C@@H](Cc1c[nH]c2ccccc12)C(=O)O [Syn-xiamencin-83] (H-AGRQKLTLELKEYLRKRGKKAFIAW-OH; N-terminus and C-terminus assumed) | 4 µM | >128 µM | 10.7% | >128 µM | – | 32 µM |
| 4 µM | 8 µM | 16 µM | – | 4 µM | CC[C@H](C)[C@H](NC(=O)[C@H](Cc1ccccc1)NC(=O)[C@H](C)NC(=O)[C@H](CCCCN)NC(=O)[C@H](CCCCN)NC(=O)CNC(=O)[C@H](CCCNC(=N)N)NC(=O)[C@H](CCCCN)NC(=O)[C@H](CCCNC(=N)N)NC(=O)[C@H](CC(C)C)NC(=O)[C@H](CCC(=O)O)NC(=O)[C@H](CCC(=O)O)NC(=O)[C@H](CC(C)C)NC(=O)[C@H](CC(C)C)NC(=O)[C@H](Cc1ccc(O)cc1)NC(=O)[C@H](CCCCN)NC(=O)[C@@H](NC(=O)[C@H](CC(C)C)NC(=O)[C@H](C)NC(=O)[C@H](CCC(N)=O)NC(=O)[C@H](CCCNC(=N)N)NC(=O)[C@H](CCCCN)NC(=O)[C@H](C)N)[C@@H](C)O)C(=O)N[C@@H](C)C(=O)N[C@@H](Cc1c[nH]c2ccccc12)C(=O)O [Syn-xiamencin-92] (H-AKRQALTKYLLEELRKRGKKAFIAW-OH; N-terminus and C-terminus assumed) | 8 µM | 8 µM | 18.8% | 16 µM | – | 8 µM |

Second part, the compound before the results:

| Structure (SMILES) | MIC [1] | MIC [2] | MIC [4] | MIC ([5]; E. coli BL21) | MIC ([5]; BL21, 16 h) | MBC [1] | MBC [2] | Percent Hemolysis [3] | MBC [4] | MBC ([5]; E. coli BL21) | MBC ([5]; BL21) |
| --- | --- | --- | --- | --- | --- | --- | --- | --- | --- | --- | --- |
| CC[C@H](C)[C@H](NC(=O)[C@H](CCCNC(=N)N)NC(=O)CNC(=O)[C@@H](NC(=O)[C@H](CCCCN)NC(=O)[C@H](CCCNC(=N)N)NC(=O)[C@@H](NC(=O)[C@H](Cc1ccc(O)cc1)NC(=O)[C@H](CCCNC(=N)N)NC(=O)[C@H](CCCNC(=N)N)NC(=O)[C@H](CC(C)C)NC(=O)[C@H](CCC(=O)O)NC(=O)[C@H](CCCCN)NC(=O)[C@H](C)NC(=O)[C@@H](NC(=O)[C@H](CCCNC(=N)N)NC(=O)[C@H](CC(N)=O)NC(=O)[C@@H](NC(=O)[C@H](CCCCN)NC(=O)[C@H](C)N)[C@@H](C)O)[C@@H](C)CC)[C@@H](C)CC)C(C)C)C(=O)N[C@@H](C)C(=O)N[C@@H](CCCNC(=N)N)C(=O)N[C@@H](CCCCN)C(=O)N[C@@H](C)C(=O)N[C@@H](Cc1c[nH]c2ccccc12)C(=O)O [Syn-sordellicin-96] (H-AKTNRIAKELRRYIRKVGRIARKAW-OH; N-terminus and C-terminus assumed) | 0.5 µM | 32 µM | 8 µM | 0.25 µM | – | 0.5 µM | 32 µM | 14.6% | 16 µM | 0.25 µM | – |
| CC[C@H](C)[C@H](NC(=O)[C@H](Cc1ccccc1)NC(=O)[C@H](C)NC(=O)[C@H](CCCCN)NC(=O)[C@H](CCCCN)NC(=O)[C@H](Cc1c[nH]c2ccccc12)NC(=O)[C@H](CCCNC(=N)N)NC(=O)[C@H](CCCCN)NC(=O)[C@H](CCCNC(=N)N)NC(=O)[C@H](CC(C)C)NC(=O)[C@H](CCC(=O)O)NC(=O)[C@H](CCC(=O)O)NC(=O)[C@H](CC(C)C)NC(=O)[C@H](CC(C)C)NC(=O)[C@H](Cc1ccc(O)cc1)NC(=O)[C@H](CCCCN)NC(=O)[C@@H](NC(=O)[C@H](CC(C)C)NC(=O)[C@H](C)NC(=O)[C@H](CCC(N)=O)NC(=O)[C@H](CCCNC(=N)N)NC(=O)CNC(=O)[C@H](C)N)[C@@H](C)O)C(=O)N[C@@H](C)C(=O)N[C@@H](Cc1c[nH]c2ccccc12)C(=O)O [Syn-xiamencin-20] (H-AGRQALTKYLLEELRKRWKKAFIAW-OH; N-terminus and C-terminus assumed) | 2 µM | 32 µM | 64 µM | – | 1 µM | 2 µM | 32 µM | 10.5% | 64 µM | – | 1 µM |
| CC[C@H](C)[C@H](NC(=O)[C@H](Cc1ccccc1)NC(=O)[C@H](C)NC(=O)[C@H](CCCCN)NC(=O)[C@H](CCCCN)NC(=O)CNC(=O)[C@H](CCCNC(=N)N)NC(=O)[C@H](CCCCN)NC(=O)[C@H](CCCNC(=N)N)NC(=O)[C@H](CC(C)C)NC(=O)[C@H](CCC(=O)O)NC(=O)[C@H](CCC(=O)O)NC(=O)[C@H](CCCCN)NC(=O)[C@H](CC(C)C)NC(=O)[C@H](Cc1ccc(O)cc1)NC(=O)[C@H](CC(C)C)NC(=O)[C@@H](NC(=O)[C@H](CC(C)C)NC(=O)[C@H](C)NC(=O)[C@H](CCC(N)=O)NC(=O)[C@H](CCCNC(=N)N)NC(=O)CNC(=O)[C@H](C)N)[C@@H](C)O)C(=O)N[C@@H](Cc1c[nH]c2ccccc12)C(=O)N[C@@H](Cc1c[nH]c2ccccc12)C(=O)O [Syn-xiamencin-57] (H-AGRQALTLYLKEELRKRGKKAFIWW-OH; N-terminus and C-terminus assumed) | 4 µM | 16 µM | >128 µM | – | 16 µM | 8 µM | 32 µM | 17.0% | >128 µM | – | 16 µM |
